Non-standard residues stand in square brackets, D forms with d. dDab = NCC[C@@H](N)C(=O)O; Orn = NCCC[C@H](N)C(=O)O; Dab = NCC[C@H](N)C(=O)O
Tested on: Pseudomonas aeruginosa clinical isolate PAX11045
Assay: Efficacy in murine pneumonia model, compound 1 in combination with tigecycline (Example 1)
Format: in vivo
Protocol: Colony counts in lung were determined at 20 hours post treatment.
Fresh overnight colonies of PAX11045 from a 5% Horse Blood Agar plate were suspended in 0.9% sterile saline to approximately 10^8 CFU/ml and further diluted to approximately […]. Female mice (DBA/2, […], 18-22 g, Chales River) were anesthetized with 0.08 ml of Zoletil and inoculated via the nose with a pipette with 0.1 ml of the bacteria suspension containing approximately 10^6 CFU. 4 hours after inoculation, the mice were treated orally with 45 μl neurophen (20 mg ibuprofen/ml corresponding to approximately 30 mg/kg) as pain relief.
[…] As positive control Ciprofloxacin was used in the same manner with a fixed dose of 20 mg/kg.
Colony counts were determined post inoculation at 4 hours (untreated mice) and 24 hours (treated and vehicle-only treated mice). Immediately after the mice were sacrificed, the lungs were collected and frozen at −20° C. After thawing, the organs were homogenized in 1 ml 0.9% saline. Each sample was then 10 fold diluted in saline and 20 μl spots were applied on blood agar plates. All agar plates were incubated 18-24 hours at 35° C. in ambient air.

[1] = compound 1 in presence of 12.5 mg/kg tigecycline, mice, murine lungs

Compound | effect on bacterial loads (tigecycline 12.5 mg/kg alone, s.c. single dose 3 h post infection, lung) | Top level (compound 1 in presence of 12.5 mg/kg tigecycline (s.c., 3 h post infection), mice, murine lungs) [log10 CFU/ml] | 2 log killing dose [1] [mg/kg] | Bottom level [1] [log10 CFU/ml] | Emax [1] [log10 CFU/ml] | Static dose [1] [mg/kg] | ED50 (compound 1 in presence of a fixed dose of tigecycline (12.5 mg/kg), mice, s.c., murine lungs, colony counts 20 h post treatment) [mg/kg]
CN(C)c1cc(NC(=O)CNC(C)(C)C)c(O)c2c1C[C@H]1C[C@H]3[C@H](N(C)C)C(O)=C(C(N)=O)C(=O)[C@@]3(O)C(O)=C1C2=O [tigecycline, reference compound] | no effect |  |  |  |  |  | 
cyclo(TWI[Dab][Orn][dDab][Dab]W[Dab][Dab]AS[dP]P) [compound 1] |  | 0.13 | 2.1 | −2.37 | 2.5 | 0.74 | 1.33
